Assay: relative permittivity at zero frequency (dimensionless); mn = molality of the nth substance listed, in mol/kg
Details: 101 kPa, Liquid, dielectric constant meter

NCC(=O)O [2-aminoacetic acid] + O
relative permittivity at zero frequency
Details	278.15 K	283.15 K	288.15 K	293.15 K	298.15 K	303.15 K	308.15 K	313.15 K
m1 = 0.1	88.4	86.4	84.5	82.6	80.7	78.8	76.9	75
m1 = 0.15	89.5	87.5	85.6	83.6	81.7	79.7	77.8	75.8
m1 = 0.2	90.6	88.6	86.6	84.6	82.6	80.6	78.5	76.4
m1 = 0.25	91.6	89.6	87.6	85.6	83.5	81.4	79.2	77
m1 = 0.3	92.8	90.7	88.7	86.5	84.3	82.1	79.7	77.2
